Results on three compounds are retold here after article PMC7496931, “Activation of Sirtuin 2 Inhibitors Employing Photoswitchable Geometry and Aqueous Solubility” (Chemmedchem, 2020).

For the test, the target named is T1, Sirt2 (Homo sapiens, UniProt Q8IXJ6).
T1 construct: Expression and purification of Sirt1_133−747, Sirt2_56−356, and Sirt3_118−395 was carried out as described previously; made in house
T1 sequence (Q8IXJ6 56-356): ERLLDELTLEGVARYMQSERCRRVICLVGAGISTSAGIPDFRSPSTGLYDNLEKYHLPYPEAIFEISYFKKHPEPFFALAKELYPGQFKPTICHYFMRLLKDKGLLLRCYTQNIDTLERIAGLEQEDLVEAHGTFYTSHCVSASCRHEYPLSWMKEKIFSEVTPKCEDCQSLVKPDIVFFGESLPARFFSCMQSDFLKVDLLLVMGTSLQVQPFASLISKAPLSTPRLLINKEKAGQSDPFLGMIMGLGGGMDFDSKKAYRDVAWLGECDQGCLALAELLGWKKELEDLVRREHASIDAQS
Kind of test: FP-based binding assay (competition with fluorescently labelled SirReal probe). Details: key to Sirt2 inhibition FP-Assay (class): n.i. = no inhibition detected. The text has this:
This conformational change is also observed upon binding of numerous other compounds as myristoylated substrates, for instance.23 A recently developed fluorescence polarization (FP)‐based binding assay was utilized to determine whether our compounds are able to prevent binding of a fluorescently labelled SirReal to the catalytic core of Sirt2.7 Serendipitously, competition with the fluorescent probe could be confirmed for 7 f (Table S3). […] Therefore, this scaffold seemed to be a promising structure for further derivatization. […]
yielding the percentage substrate conversion. Comparison of the determined substrate conversion with a no-inhibition DMSO control yields the percentage inhibition at the respective […]
For determination of IC50, inhibitory activity of the respective compound was determined at 8 to 10 distinct concentrations. The measured values were analysed by a non-linear fit to the dose-response curve using a four parameter logistic model (Figure S6):
Figure S6: Non-linear regression of the dose-response curves of compounds 15c and 15f at the thermal equilibrium (∆, black) and after 5 minutes of 365 nm irradiation (red). […]
before 5 µL of the solution of 21 (40 nM final assay concentration) were added. After further 30 min of incubation at 37 °C the fluorescence intensities were recorded with an EnVisionTM plate reader (PerkinElmer) with the following settings: optical module – BODIPY TMR FP, excitation filter – FP 531 nm, emission filter 1 – FP p-pol 595 nm, emission filter 2 – FP s-pol 595 nm. Fluorescence polarization (P) values were determined as […] (mP), […]
where Is/IP are the fluorescence intensities measured in the s- and the p-plane respectively, both blank corrected. […] Inhibition was calculated from fluorescence polarization in relation to the maximal polarization and minimal […]
Table S3: Compounds 7c, 7f and 9a examined in the FP-based binding assay and in the ZMAL activity assay. Inhibition of Sirt2 in the FP-based binding assay indicates displacement of the fluorescence-labelled SirReal probe and implies a similar binding mode. […]

Take `NC(=O)c1cncc(/N=N/c2c(O)ccc3ccccc23)c1` [7 c]: the “Sirt2 inhibition FP-Assay (class)” value is “n.i”. `Cc1cc(/N=N/c2cncc(C(N)=O)c2)cc(C)c1N` [7 f]: the inhibition at 10 µM (@ 10 µM, read-out: Sirt2 inhibition FP-Assay, % inhibition of binding of the fluorescent probe) turned out to be 46%.

`CC(=O)Nc1c(C)cc(/N=N/c2cncc(C(N)=O)c2)cc1C` [9 a]: the inhibition at 100 µM (@ 100 µM, read-out: Sirt2 inhibition FP-Assay, % inhibition of binding of the fluorescent probe) was found to be 69%.

The term inhibition denotes the share of the control response that was lost under treatment.
